From patent publication US20240207159A1, “SKIN PENETRATION IMPROVER” (KANEKA CORPORATION, priority 2021, published 2024)

Legend:
Assay type in all cases: in vitro ADME, human
[1] = Transdermal absorption test of water-soluble fluorescent dye (Franz diffusion cell, fluorescence microscopy of frozen section); settings: 6 hours
Description: A circle human skin sample having a thickness of about 700 μm was attached to a test cell of an In vitro transdermal penetration test device (“TransView C12” manufactured by CosMED). The test cell was an open system Franz diffusion cell having an effective diameter of 1.7 cm, an area of 2.27 cm^2 and a receptor liquid volume of 5.75 mL. An electrical resistance value was measured to confirm that there was not any problems with the sample. Then, the test cell was filled with a phosphate buffer solution of pH 7.0 as a receptor liquid. The phosphate buffer solution of pH 7.01 (500 μL) containing 1.5 mass % surfactin sodium salt (SF), 1 mass % phospholipid (DMPC: 1,2-dimyristoyl-sn-glycero-3-phosphocholine) and 10 mM water-soluble fluorescent dye (calcein) was applied to the skin sample, and the skin sample was installed at the test device of which temperature was maintained at 32° ° C. to start the test.
In addition, similar tests were conducted for comparison using a PBS solution of pH 7.09 containing 10 mM water-soluble fluorescent dye, a PBS solution of pH 6.99 containing 10 mM water-soluble fluorescent dye+1.5 mass % SF, and a PBS solution of pH 7.08 containing 10 mM water-soluble fluorescent dye+1 mass % phospholipid.
The skin sample was cut 6 hours after the start of the test, embedded in O. C. T. Compound, cooled using cooled acetone to be frozen, and sliced to prepare a frozen section. The cut surface was observed using a fluorescence microscope. Separately, the used human skin sample was dyed using hematoxylin-eosin and observed under magnification.
The result of the human skin sample is shown in FIG. 1, the result of the 10 mM water-soluble fluorescent dye PBS solution is shown in FIG. 2A, the result of the 10 mM water-soluble fluorescent dye+1.5 mass % SF PBS solution is shown in FIG. 2B, the result of the 10 mM water-soluble fluorescent dye+1 mass % phospholipid PBS solution is shown in FIG. 2C, and the result of the 10 mM water-soluble fluorescent dye+1 mass % phospholipid+1.5 mass % SF PBS solution is shown in FIG. 2D.

[2] = Transdermal absorption test using cosmetics component (Franz diffusion cell, tape stripping, HPLC); settings: for Penetration amount into epidermis/dermis (%) / Penetration amount into stratum corneum (%) / Wiping + first layer (%): 2 mg/cm^2, 6 hours; for Penetration amount into epidermis/dermis (%) / Penetration amount into stratum corneum (%) / Wiping + first layer (%) / Passing amount (%): ratio to 100 as total retrieved amount; for Passing amount (%): receptor liquid, 6 hours; for skin penetration property into the skin: combination of surfactin and a phospholipid in comparison with the aqueous solution
Description: The skin penetration properties of niacinamide and arbutin, which are often mixed in cosmetics as active ingredients, were evaluated by a similar test to Example 1. A circle human skin sample having a thickness of about 700 μm was attached to a test cell of an In vitro transdermal penetration test device (“TransView C12” manufactured by CosMED). The test cell is an open system Franz diffusion cell having an effective diameter of 2.0 cm, an area of 3.14 cm- and a receptor liquid volume of 2.4 mL. An electrical resistance value was measured to confirm that there were not any problems with the sample. Then, the test cell was filled with a phosphate buffer solution of pH 7.0 as a receptor liquid. The phosphate buffer solution of pH 7.0 containing 2 mass % surfactin sodium salt (SF), 1 mass % natural lecithin and 5 mass % active ingredient was applied to the skin sample at a rate of 2 mg/cm^2, and the skin sample was installed at the test device of which temperature was maintained at 32° C. to start the test. A phosphate buffer solution containing 5 mass % active ingredient was concurrently subjected to the test as control.
(§1) The skin sample was taken out of the test cell 6 hours after the start of the test, and the surface was wiped using cotton. Then, the first round of tape stripping, hereinafter referred to as “TS”, was conducted using a dedicated tape, hereinafter referred to as “tape”. Specifically, the tape was attached to the skin sample and then peeled. A mixed solvent (15 mL) of ethanol:water=1:1 by v/v was added thereto, and ultrasonic wave was applied to the mixture for 1 hour for extraction. The obtained liquid was retrieved, and the above-described mixed solvent was added thereto to adjust the total amount to 20 mL as an analytic sample of “wiping+first layer”.
(§2) Then, the second or later round of TS were conducted. The number of the total times of TS was 15 at a maximum, and the number of times was adjusted depending on the condition of the skin sample surface. The tapes of second or later round were combined, and the extraction using aqueous ethanol and the total amount adjustment were conducted in a similar condition to the above to prepare an analytic sample of “penetration amount into stratum corneum”.
(§3) In addition, the remaining skin sample was finely cut and divided into two tubes for crushing. Water (0.5 mL) was added into each tube, and the skin was crushed using a crushing machine for 20 minutes. The liquid containing the crushed skin was retrieved from two tubes into one centrifuge test. Then, ethanol (12 mL) was added thereto, and the mixture was efficiently stirred and centrifuged to obtain a supernatant. Water was added to the obtained supernatant to adjust the total amount to 20 mL to prepare an analytic sample of “penetration amount into epidermis/dermis”.
(§4) The receptor liquid was also retrieved, and water was added thereto to adjust the total amount to 20 mL to prepare an analytic sample of “passing amount”. The amounts of each active ingredient in each obtained solution were measured by HPLC.
The amounts of the active ingredients retrieved from each sample of the above-described “wiping+first layer”, “penetration amount into stratum corneum”, “penetration amount into epidermis/dermis” are shown in Table 1 as ratios to 100 as the total amount retrieved from 4 samples.

[3] = Effect of concentrations of phospholipid and surfactin on penetration of active ingredient (transdermal absorption test); settings: 5 mass % niacinamide
Description: A circle human skin sample having a thickness of about 700 μm was attached to a test cell of an In vitro transdermal penetration test device (“TransView C12” manufactured by CosMED). The test cell is an open system Franz diffusion cell having an effective diameter of 2.0 cm, an area of 3.14 cm- and a receptor liquid volume of 2.4 mL. An electrical resistance value was measured to confirm that there were not any problems with the sample. Then, the test cell was filled with a phosphate buffer solution of pH 7.0 as a receptor liquid. The phosphate buffer solution of pH 7.0 containing 2 mass % surfactin sodium salt (SF), 1 mass % natural lecithin and 5 mass % active ingredient was applied to the skin sample at a rate of 2 mg/cm^2, and the skin sample was installed at the test device of which temperature was maintained at 32° C. to start the test.
as §1, §2, §3, §4
The condition of Example 2 was used as a benchmark of the concentrations of a phospholipid and surfactin in the samples applied to the skin, and the concentration, the ½ concentration thereof and the 1/10 concentration thereof were tested. All of the concentrations of niacinamide in the samples were adjusted to 5 mass %. The ratio of the active ingredient amounts in each sample to 100 of the total retrieved amount are shown.

[4] = Control: phosphate buffer solution containing 5 mass % active ingredient, 32 °C
[5] = Control: phosphate buffer solution containing 5 mass % active ingredient
[6] = Example: 2 mass % SF + 1 mass % natural lecithin + 5 mass % active ingredient, phosphate buffer pH 7.0
[7] = Example: 2 mass % surfactin sodium salt (SF) + 1 mass % natural lecithin + 5 mass % active ingredient, phosphate buffer pH 7.0
[8] = 1/10 conc. of phospholipid and surfactin of Example 2
[9] = Control, ratio to 100 of total retrieved amount
[10] = Example: phospholipid and surfactin at the concentration of Example 2
[11] = ½ conc. of phospholipid and surfactin of Example 2

O=C(O)CN(CC(=O)O)Cc1cc2c(cc1O)Oc1cc(O)c(CN(CC(=O)O)CC(=O)O)cc1C21OC(=O)c2ccccc21 [water-soluble fluorescent dye, calcein]
skin penetration of the water-soluble fluorescent dye (fluorescence microscope, cut surface) ([1]; PBS solution pH 6.99, 10 mM dye + 1.5 mass % SF (surfactin sodium salt), FIG. 2B): reached deeper epidermal tissue than the stratum corneum but mainly remained in the stratum corneum
skin penetration of the water-soluble fluorescent dye (fluorescence microscope, cut surface) ([1]; PBS solution pH 7.08, 10 mM dye + 1 mass % phospholipid (DMPC), FIG. 2C): reached deeper epidermal tissue than the stratum corneum but mainly remained in the stratum corneum
skin penetration of the water-soluble fluorescent dye (fluorescence microscope, cut surface) ([1]; PBS solution pH 7.09, 10 mM dye only, 32 °C, FIG. 2A): remained on the surface and could not infiltrate the deeper area than the stratum corneum
skin penetration of the water-soluble fluorescent dye (fluorescence microscope, cut surface) ([1]; phosphate buffer pH 7.01, 10 mM dye + 1 mass % phospholipid (DMPC) + 1.5 mass % SF, FIG. 2D): clearly infiltrated the epidermal tissue and also reached the dermis

OC[C@H]1O[C@@H](Oc2ccc(O)cc2)[C@H](O)[C@@H](O)[C@@H]1O [Arbutin, arbutin]
Penetration amount into epidermis/dermis (%) [2, 4]: 0%
Penetration amount into stratum corneum (%) [2, 4]: 5%
Wiping + first layer (%) [2, 4]: 95%
Passing amount (%) [2, 5]: 0%
Penetration amount into epidermis/dermis (%) [2, 6]: 23%
Penetration amount into stratum corneum (%) [2, 6]: 25%
Passing amount (%) [2, 6]: 0%
Wiping + first layer (%) [2, 7]: 52%
skin penetration property into the skin [2]: remarkably improved

NC(=O)c1cccnc1 [Niacinamide, niacinamide]
Penetration amount into epidermis/dermis (%) [2, 4]: 5%
Penetration amount into stratum corneum (%) [2, 4]: 7%
Wiping + first layer (%) [2, 4]: 89%
Passing amount (%) [2, 5]: 0%
Penetration amount into epidermis/dermis (%) [2, 6]: 37%
Penetration amount into stratum corneum (%) [2, 6]: 39%
Passing amount (%) [2, 6]: 0%
Wiping + first layer (%) [2, 7]: 24%
skin penetration property into the skin [2]: remarkably improved
Passing amount (%) [3, 8]: 15%
Penetration amount into epidermis/dermis (%) [3, 8]: 18%
Penetration amount into stratum corneum (%) [3, 8]: 26%
Wiping + first layer (%) [3, 8]: 41%
Passing amount (%) [3, 9]: 15%
Penetration amount into epidermis/dermis (%) [3, 9]: 8%
Penetration amount into stratum corneum (%) [3, 9]: 11%
Wiping + first layer (%) [3, 9]: 65%
Passing amount (%) [3, 10]: 39%
Penetration amount into epidermis/dermis (%) [3, 10]: 18%
Penetration amount into stratum corneum (%) [3, 10]: 23%
Wiping + first layer (%) [3, 10]: 19%
Passing amount (%) [3, 11]: 15%
Penetration amount into epidermis/dermis (%) [3, 11]: 18%
Penetration amount into stratum corneum (%) [3, 11]: 23%
Wiping + first layer (%) [3, 11]: 44%
